From US9938292B2 (GUANGDONG ZHONGSHENG PHARMACEUTICAL CO., LTD, priority 2014, dated 2018)

system: Hedgehog signaling pathway; experiment: Gli-Luc luciferase reporter gene assay in C3H10T1/2/Gli-Luc cells under Shh-N stimulation; assay type: cell-based; conditions: Mus musculus, C3H 10T1/2, 24 h, luciferase RLU, read-out: biological activity: IC50 of the inhibitory activities of compounds on the hedgehog pathway
Procedure, shortened: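 IC50 derived by curve fitting of luciferase RLU against log compound concentration. Stable C3H10T1/2/Gli-Luc cells, seeded overnight, were co-treated 24 h with serially diluted compound (7 points, duplicate wells) and 30 nM Shh-N-containing HEK293 conditioned medium before lysis and luminescence readout.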

IC50 [nM]	Structure (SMILES)
≤ 50	COc1c(-c2ccc(N3C[C@@H](C)O[C@@H](C)C3)nc2)cnc2c(-c3ccc(OC(F)(F)F)cc3)cccc12 [Embodiment 160]
1000 to 5000	Cc1cn(-c2ccc(N3C[C@@H](C)O[C@@H](C)C3)cc2)c(=O)c2cccc(-c3cccc(C#N)c3)c12 [Embodiment 63]
50 to 100	Cc1c(-c2ccc(N3C[C@@H](C)O[C@@H](C)C3)cc2)cnc2c(-c3ccc(C#N)cc3)cccc12 [Embodiment 122]
500 to 1000	Cc1cn(-c2ccc(N3C[C@@H](C)O[C@@H](C)C3)cc2)c(=O)c2cccc(-c3ccccn3)c12 [Embodiment 53]
100 to 500	COc1c(N2CCN(C(=O)Cc3ccncc3)CC2)cnc2c(-c3ccc(C#N)cc3)cccc12 [Embodiment 207, 4-(4-methoxy-3-(4-(2-(pyridin-4-yl)acetyl)piperazin-1-yl)quinolin-8-yl)benzonitrile]
≤ 50	COC(=O)N1[C@H](C)CN(c2ccc(-c3cnc4c(-c5ccc(C#N)cc5)cccc4c3OC)cc2)C[C@@H]1C [Embodiment 182]
100 to 500	Cc1cn(-c2ccc(N3CCN(c4nsc5ccccc45)CC3)cc2)c(=O)c2cccc(-c3ccc(C#N)cc3)c12 [Embodiment 13]
≤ 50	CC(C)(O)c1ccc(C2(O)CCN(c3cnc4c(-c5ccc(C#N)cc5)cccc4c3C3CC3)CC2)nc1 [Embodiment 262]
≤ 50	COc1c(C(=O)Nc2ccc(N3C[C@@H](C)O[C@@H](C)C3)nc2)cnc2c(-c3ccc(C#N)cc3)cccc12 [Embodiment 243, 8-(4-cyanophenyl)-N-(6-((2S,6R)-2,6-dimethylmorpholino)pyridin-3-yl)-4-methoxyquinoline-3-carboxamide]
500 to 1000	C[C@@H]1CN(c2ccc(-n3ccc4c(-c5ccc(C#N)cc5)cccc4c3=O)cc2)C[C@H](C)O1 [Embodiment 73]
500 to 1000	Cc1cn(-c2ccc(N3C[C@@H](C)O[C@@H](C)C3)cc2)c(=O)c2cccc(-c3ccc(C#N)c(F)c3)c12 [Embodiment 59]
100 to 500	COc1c(-c2ccc(N3C[C@@H](C)O[C@@H](C)C3)cc2)cnc2c(-c3ccc(-c4ncc[nH]4)cc3)cccc12 [Embodiment 111]
≤ 50	C[C@@H]1CN(c2ccc(-c3cnc4c(-c5ccc(C#N)cc5)cccc4c3C3CC3)cn2)C[C@H](C)O1 [Embodiment 134]
100 to 500	Cc1cn(-c2ccc(N3CC(C)CC(C)C3)cc2)c(=O)c2cccc(-c3ccc(C#N)cc3)c12 (stereo not drawn) [Embodiment 3]
≤ 50	Cc1cn(-c2ccc(N3CC(C)(C)C(O)C(C)(C)C3)cc2)c(=O)c2cccc(-c3ccc(C#N)cc3)c12 [Embodiment 39, 4-(2-(4-(4-hydroxy-3,3,5,5-tetramethylpiperidin-1-yl)phenyl)-4-methyl-1-oxo-1,2-dihydroisoquinolin-5-yl)benzonitrile]
100 to 500	COC(=O)N1[C@H](C)CN(c2ccc(-n3cc(C)c4c(-c5ccc(C#N)cc5)cccc4c3=O)cc2)C[C@H]1C [Embodiment 19]
100 to 500	Cc1cc(-c2cccc3c(=O)n(-c4ccc(N5C[C@@H](C)O[C@@H](C)C5)cc4)cc(C)c23)ccc1C#N [Embodiment 61]
≤ 50	COc1c(-c2ccc(N3C[C@@H](C)O[C@@H](C)C3)cc2)cnc2c(-c3ccc(Cl)nc3)cccc12 [Embodiment 95]
100 to 500	COc1c(N2CCN(c3ccc(C(C)(C)O)cn3)C(=O)C2)cnc2c(-c3ccc(C#N)cc3)cccc12 [Embodiment 253, 4-(3-(4-(5-(2-hydroxypropan-2-yl)pyridin-2-yl)-3-oxopiperazin-1-yl-4-methoxyquinolin-8-yl))benzonitrile]
≤ 50	C[C@@H]1CN([C@@H]2CCN(c3cnc4c(-c5ccc(C#N)cc5)cccc4c3C3CC3)C[C@@H]2F)C[C@H](C)O1 [Embodiment 269, 4-(4-cyclopropyl-3-((3S,4R)-4-((2S,6R)-2,6-dimethylmorpholino)-3-fluoropiperidin-1-yl)quinolin-8-yl)benzonitrile]
50 to 100	Cc1cn(-c2ccc(N3CC(C)N(C(=O)C4CC4)C(C)C3)cc2)c(=O)c2cccc(-c3ccc(C#N)cc3)c12 (stereo not drawn) [Embodiment 26]
100 to 500	COc1c(N2CCC(N3C[C@@H](C)O[C@@H](C)C3)C2)cnc2c(-c3ccc(C#N)cc3)cccc12 (stereo partly drawn) [Embodiment 229, 4-(3-(3-(2,6-dimethylmorpholino)pyrrolidin-1-yl)-4-methoxyquinolin-8-yl) benzonitrile]
50 to 100	C[C@@H]1CN(c2ccc(-c3cnc4c(-c5ccc(C#N)cc5)cccc4c3N3CCC3)cn2)C[C@H](C)O1 [Embodiment 139, 4-(4-(azetidin-1-yl)-3-(6-((2S,6R)-2,6-dimethylmorpholino)pyridin-3-yl)quinolin-8-yl) benzonitrile]
≤ 50	COc1c(-c2ccc(N3C[C@@H](C)O[C@@H](C)C3)cc2)cnc2c(-c3ccc(C#N)cc3)cncc12

IC50 [nM]	Structure (SMILES)
100 to 500	COc1c(-c2ccc(N3C[C@@H](C)O[C@@H](C)C3)cc2)cnc2c(C3CCC(C#N)CC3)cccc12 (stereo partly drawn) [Embodiment 116, 4-(3-(4-((2S,6R)-2,6-dimethylmorpholino)phenyl)-4-methoxyquinolin-8-yl) cyclohexane carbonitrile]
≤ 50	C[C@H]1CN(c2ccc(-c3cnc4c(-c5ccc(C#N)cc5)cccc4c3C3CC3)cn2)C[C@H](C)O1 [Embodiment 266, 4-(4-cyclopropyl-3-(6-((2S,6S)-2,6-dimethylmorpholino)pyridin-3-yl)quinolin-8-yl) benzonitrile]
500 to 1000	Cc1cn(-c2ccc(NCCN3C[C@@H](C)O[C@@H](C)C3)cc2)c(=O)c2cccc(-c3ccc(C#N)cc3)c12 [Embodiment 12]
100 to 500	COc1c(-c2ccc(N3C[C@@H](C)O[C@@H](C)C3)c(Cl)c2)cnc2c(-c3ccc(C#N)cc3)cccc12 [Embodiment 173]
≤ 50	COc1c(N2CCN(C(=O)NC3CCOCC3)CC2)cnc2c(-c3ccc(C#N)cc3)cccc12 [Embodiment 212]
100 to 500	C[C@@H]1CN(c2ccc(-c3cnc4c(-c5ccc(C#N)cc5)cccc4c3C3=CCCC3)cn2)C[C@H](C)O1 [Embodiment 260]
100 to 500	COc1c(-c2ccc(N3C[C@@H](C)N(C(=O)C(C)N)[C@@H](C)C3)nc2)cnc2c(-c3ccc(C#N)cc3)cccc12 (stereo partly drawn) [Embodiment 199]
50 to 100	Cc1cn(-c2ccc(N3C[C@@H](C)N(C(=O)c4ccccc4)[C@H](C)C3)cc2)c(=O)c2cccc(-c3ccc(C#N)cc3)c12 [Embodiment 14, 4-(2-(4-((3R,5R)-4-benzoyl-3,5-dimethylpiperazin-1-yl)phenyl)-4-methyl-1-oxo-1,2-dihydroisoquinolin-5-yl)benzonitrile]
≤ 50	C[C@@H]1CN(c2ccc(-c3cnc4c(-c5ccc(C#N)cc5)cccc4c3C3CC3)cc2)C[C@H](C)O1 [Embodiment 121, 4-(4-cyclopropyl-3-(4-((2S,6R)-2,6-dimethylmorpholino)phenyl)quinolin-8-yl) benzonitrile]
≤ 50	CCC(=O)N1[C@H](C)CN(c2ccc(-c3cnc4c(-c5ccc(C#N)cc5C)cccc4c3OC)cn2)C[C@@H]1C [Embodiment 202]
100 to 500	COc1c(-c2ccc(C(=O)N3C[C@@H](C)O[C@@H](C)C3)s2)cnc2c(-c3ccc(C#N)cc3)cccc12 [Embodiment 178, 4-(3-(5-((2S,6R)-2,6-dimethylmorpholine-4-carbonyl)thiophen-2-yl)-4-methoxyquinolin-8-yl)benzonitrile]
100 to 500	COc1c(-c2ccc(N3C[C@@H](C)O[C@@H](C)C3)nc2)cnc2c(-c3ccc(C(C)C)nc3Cl)cccc12 [Embodiment 164]
≤ 50	COc1c(-c2ccc(N3C[C@@H](C)O[C@@H](C)C3)nc2C)cnc2c(-c3ccc(C#N)cc3)cccc12 [Embodiment 166, 4-(3-(6-((2S,6R)-2,6-dimethylmorpholino)-2-methylpyridin-3-yl)-4-methoxyquinolin-8-yl)benzonitrile]
50 to 100	C[C@@H]1CN(c2ccc(-c3cnc4c(-c5ccc(C#N)cc5)cccc4c3N(C)C)cc2)C[C@H](C)O1 [Embodiment 119, 4-(4-(dimethylamino)-3-(4-((2S,6R)-2,6-dimethylmorpholino)phenyl)quinolin-8-yl) benzonitrile]
≤ 50	COc1c(C(=O)Nc2ccc(N3C[C@@H](C)O[C@@H](C)C3)cc2)cnc2c(-c3ccc(C#N)cc3)cccc12 [Embodiment 242, 8-(4-cyanophenyl)-N-(4-((2S,6R)-2,6-dimethylmorpholino)phenyl)-4-methoxyquinoline-3-carboxamide]
50 to 100	Cc1cn(-c2ccc(N3CC(C)N(C(=O)C(C)(C)C)C(C)C3)cc2)c(=O)c2cccc(-c3ccc(C#N)cc3)c12 (stereo not drawn) [Embodiment 25]
500 to 1000	Cc1cn(-c2ccc(N3C[C@@H](C)O[C@@H](C)C3)cc2)c(=O)c2cccc(-c3ccc(C4CC4)cc3)c12 [Embodiment 69, 5-(4-cyclopropylphenyl)-2-(4-((2R,6S)-2,6-dimethylmorpholino)phenyl)-4-methylisoquinolin-1(2H)-one]
1000 to 5000	Cc1cn(-c2ccc(N3C[C@@H](C)O[C@@H](C)C3)cc2)c(=O)c2ccnc(-c3ccc(OC(F)(F)F)cc3)c12 [Embodiment 83]
≤ 50	COc1c(N2CCN(C(=O)CC(C)(C)O)CC2)cnc2c(-c3ccc(C#N)cc3)cccc12 [Embodiment 214]
≤ 50	COc1c(N2CCN(c3cnc(C(C)(C)O)cn3)CC2)cnc2c(-c3ccc(C#N)cc3)cccc12 [Embodiment 221]
500 to 1000	Cc1cn(-c2ccc(N3C[C@@H](C)O[C@@H](C)C3)cc2)c(=O)c2cccc(-c3ccc(C#N)nc3)c12 [Embodiment 56]
1000 to 5000	Cc1cn(-c2ccc(N3C[C@@H](C)O[C@@H](C)C3)nc2)c(=O)c2cccc(-c3ccc(OC(F)(F)F)cc3)c12 [Embodiment 68]
1000 to 5000	Cc1cn(-c2ccc(N3C[C@@H](C)O[C@@H](C)C3)cc2)c(=O)c2cccc(-c3ccc(OC(F)(F)F)cc3)c12 [Embodiment 47]
≤ 50	CS(=O)(=O)CCC(=O)N1CCN(c2cnc3c(-c4ccc(C#N)cc4)cccc3c2C2CC2)CC1 [Embodiment 267, 4-(4-cyclopropyl-3-(4-(3-(methylsulfonyl)-3-propanoyl))quinolin-8-yl) benzonitrile]
